# Assay results taken from patent US6063964A, “5-hydroxymethyl-2-aminotetralins as cardiovascular agents” (Zambon Group S.p.A., priority 1997, dated 2000).
# Experiments:
# [1] = target: dopaminergic receptors D1 (Oryctolagus cuniculus, UniProt G1SML2); assay: D1 activity on the rabbit splenic artery (RSA), isolated artery rings contracted with U46619; conditions: cumulative administration, agonistic activity at peak of effect
# Protocol: Tests of dopaminergic activity on isolated tissues Evaluation of the D1 activity on the rabbit splenic artery (RSA)
# Artery rings were prepared according to Semeraro et al., Naunyn. Schnied. Arch. […] These were contracted with U46619 (9,11-dideoxy-11α, 9α -epoxy-methanprostaglandine F2 α) at a submaximal concentration of […].
# (§1) The tested compounds were cumulatively administered.
# (§2) Dopamine was used as reference compound.
# [2] = target: T1, dopaminergic receptors D2 (Oryctolagus cuniculus, UniProt G1T1Q0); assay: D2 activity in the rabbit ear artery (REA), electrically stimulated isolated artery rings; conditions: rabbit central ear artery rings, electrically stimulated (10 Hz); cumulative administration; agonistic activity at peak of effect; read-out: D2 activity (REA) expressed as pD2, i.e. -logEC50 (converted)
# T1 construct: The central ear artery was cut into 3 mm-rings; from tissue; host or cells: central ear artery rings of male New Zealand rabbits
# Protocol: Evaluation of the D2 activity in the rabbit ear artery (REA)
# Artery rings were prepared following the method described by Steinsland et al., Science, 1978, 443, 199, modified as follows.
# Male New Zealand rabbits (weighing 2.5-3 Kg) were sacrificed by a pentobarbital intravenous injection and bled. The central ear artery was cut into 3 mm-rings.
# The samples were placed into a 25 ml-bath containing a Krebs solution (mM/l): sodium chloride 118, potassium chloride 4.7, calcium chloride 2.5, magnesium sulphate 1.2, sodium hydrocarbonate 25, potassium biphosphate 1.2, glucose 11.1, balanced with oxygen 95%/carbon dioxide 5% and maintained at 35±1° C. The Krebs solution was added with EDTA (10 μM) to prevent the cathecolamine oxidation, with desipramine (0,1 μM) and corticosterone (30 μM) to stop the neuronal and extraneuronal cathecolamine re-uptake.
# The samples were electrically stimulated (10 Hz, 1 msec., 40-80 mA, 500 msec long) at intervals of 5 minutes.
# as §1, §2
# T1 sequence (G1T1Q0 1-443): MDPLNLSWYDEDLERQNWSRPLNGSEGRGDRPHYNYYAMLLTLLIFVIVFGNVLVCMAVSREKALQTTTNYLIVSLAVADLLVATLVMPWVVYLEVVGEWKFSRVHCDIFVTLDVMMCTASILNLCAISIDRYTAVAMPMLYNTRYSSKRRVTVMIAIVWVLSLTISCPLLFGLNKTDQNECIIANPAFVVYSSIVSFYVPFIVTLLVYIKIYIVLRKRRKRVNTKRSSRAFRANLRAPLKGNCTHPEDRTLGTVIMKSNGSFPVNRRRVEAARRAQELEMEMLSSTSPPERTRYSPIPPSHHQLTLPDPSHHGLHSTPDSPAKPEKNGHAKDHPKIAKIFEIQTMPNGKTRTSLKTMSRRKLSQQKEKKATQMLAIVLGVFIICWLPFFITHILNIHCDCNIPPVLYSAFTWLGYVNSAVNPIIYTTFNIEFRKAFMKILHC
# dopaminergic receptors D1, sequence (G1SML2 1-448): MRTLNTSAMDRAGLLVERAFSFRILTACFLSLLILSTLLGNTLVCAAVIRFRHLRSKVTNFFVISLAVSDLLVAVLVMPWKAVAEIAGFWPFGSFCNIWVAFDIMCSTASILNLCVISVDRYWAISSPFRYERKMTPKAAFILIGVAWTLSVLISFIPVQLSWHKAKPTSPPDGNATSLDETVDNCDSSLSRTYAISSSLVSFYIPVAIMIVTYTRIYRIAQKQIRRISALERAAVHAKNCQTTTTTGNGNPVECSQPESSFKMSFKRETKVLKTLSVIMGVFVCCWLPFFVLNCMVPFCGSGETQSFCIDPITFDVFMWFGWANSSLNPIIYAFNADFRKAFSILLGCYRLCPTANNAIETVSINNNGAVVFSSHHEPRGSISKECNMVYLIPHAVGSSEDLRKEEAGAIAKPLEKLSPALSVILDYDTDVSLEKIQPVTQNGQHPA
Compound,"D1 activity (RSA) expressed as pD2, i.e. -logEC50 [1]",EC50 [2]
"CCCN(CCC)[C@H]1CCc2c(ccc(O)c2CO)C1.O=C(O)/C=C\C(=O)O [Example 6, (S)-N,N-dipropyl-6-hydroxy-5-hydroxymethyl-1,2,3,4-tetrahydro-2-naphthylamine maleate]",6.0,10 nM
"NCCc1ccc(O)c(O)c1 [Dopamine, reference compound]",–,15.8 nM
